From US9630941B2 (priority 2008, dated 2017)
“Also recorded” adds a separate entry of the source.

Columns and labels:
[1] = Thermal stability, 120° C. for 10 min; format: physicochemical; conditions: for CBN content of the sample after heating / Drug remaining / Drug remaining (%) / THC content of the sample after heating: 120° C. for 10 min; for Drug remaining (%): % of initial; for CBN content of the sample, initial / Initial, μg (drug itself) / THC content of the sample, initial: before heating
Experimental: C. Thermal Stability—120° C. for 10 min.

[2] = tested on: intraocular pressure (IOP) induced model of glaucoma; test: Rabbit glaucoma model, IOP lowering after topical instillation; conditions: THC in Tocrisolve, 50 μL topical
[3] = Plasma THC from HME buccal patches in swine model; format: in vivo; conditions: swine
Experimental: THC was used as control formulation. Plasma was sampled from each animal at predetermined times and the amount of THC in the plasma was determined.
FIG. 20: Plasma THC concentrations as a function of time from THC-Val-HS loaded HME buccal patches. Data represents the mean value from 4 pigs. The animals were maintained under anesthesia for the first 4 hours and were then allowed to come out of anesthesia and given access to food and water.
A dose dependent plasma concentration time profile was then evaluated.
Plasma THC concentrations as a function of time and dose from THC-Val-HS loaded HME patches. Data represents the mean value. The animals for maintained under anesthesia for the first 4 hours and were then allowed to come out of anesthesia and given access to food and water.

[4] = Aqueous solubility, pH dependent; format: physicochemical
[5] = Chemical stability pH dependent at 25° C.; format: physicochemical
Experimental: B. Chemical Stability pH Dependent at 25° C.

[6] = In vivo ocular bioavailability of THC after topical formulations; conditions: for concentration at 1 h: male, New Zealand albino, rabbit, topical
[7] = Bioreversion: plasma stability, porcine plasma; format: in vitro ADME
[8] = Control (IPBS) stability for the buccal homogenate study; format: physicochemical
Experimental: (§1) b. Porcine Buccal Tissue Homogenate Stability
(§2) Protein Concentration 2 mg/ml

[9] = Bioreversion: plasma stability, rabbit plasma; format: in vitro ADME
[10] = Porcine buccal tissue homogenate stability; format: in vitro ADME; conditions: protein concentration 2 mg/ml
Experimental: as §1, §2

For CCCCCc1cc(O)c2c(c1)OC(C)(C)C1CCC(C)=CC21 (stereo not shown) [THC, Δ^9-Tetrahydrocannabinol, reference compound], the “Drug loading (%)” value [1] was 85.38 ± 7.25%, the “CBN content of the sample after heating” value [1] was 53.85 ± 1.60 µg and the “Drug remaining” value [1] was 1214.10 ± 39.12 µg. The “Drug remaining (%)” value [1] was “(95.05 ± 5.05) %”, the “CBN content of the sample, initial” value [1] was 56.76 ± 4.86 µg and the “Initial, μg (drug itself)” value [1] was 1280.70 ± 108.77 µg. For the same compound, the “maximum observed effect, drop in IOP from baseline” value [2] was 40%, the “time for IOP to return to 90% of baseline” value [2] was no more than 2 h and the “time to maximum effect post topical application” value [2] was no more than 30 min. The “Transbuccal systemic bioavailability of THC” value ([3]; THC loaded HME patch) was “no bioavailability; also recorded: extremely poor”, the “THC levels in plasma from transmucosal HME patches” value ([3]; buccal patch) was “No THC levels were detected” and the solubility ([4]; aqueous medium at pH 2, pH 2, aqueous buffer) was 0.95 µg/mL. It also gave a solubility ([4]; aqueous medium at pH 3, pH 3, aqueous buffer) of 2.23 µg/mL, a solubility ([4]; aqueous medium at pH 4, pH 4, aqueous buffer) of 1.27 µg/mL and a solubility ([4]; aqueous medium at pH 5, pH 5, aqueous buffer) of 2.23 µg/mL. The solubility ([4]; aqueous medium at pH 6, pH 6, aqueous buffer) was 2.23 µg/mL, the solubility ([4]; aqueous medium at pH 7, pH 7, aqueous buffer) was 2.23 µg/mL and the solubility ([4]; aqueous medium at pH 8, pH 8, aqueous buffer) was 2.23 µg/mL. For the same compound, the solubility ([4]; aqueous medium, pH 3, aqueous buffer) was 2.23 µM, the solubility ([4]; aqueous medium, pH 4, aqueous buffer) was 1.27 µM and the solubility ([4]; aqueous medium, pH 5, aqueous buffer) was 2.23 µM. For the same compound, the solubility ([4]; aqueous medium, pH 6, aqueous buffer) was 2.23 µM, the solubility ([4]; aqueous medium, pH 7, aqueous buffer) was 2.23 µM and the solubility ([4]; aqueous medium, pH 8, aqueous buffer) was 2.23 µM. It also gave a solubility ([4]; pH 2, aqueous buffer) of 0.95 µM, a solubility ([4]; water) of 2.23 µM and a solubility ([4]; water, H20) of 2.23 µg/mL. For the same compound, the “First order rate constant” value ([5]; Buffer pH 5.0, 25° C.) was 0.017 h⁻¹, the “First order rate constant” value ([5]; Buffer pH 7.0, 25° C.) was 0.0098 h⁻¹ and the “THC concentrations in aqueous humor, iris-ciliary bodies / anterior segment ocular tissues” value ([6]; 1 hour post topical application) was “not observed”. For the same compound, the concentration at 1 h ([6]; cornea, 50 μL of 0.1% w/v THC) was 1380 ng/g, the concentration at 1 h ([6]; cornea, 50 μL of 0.37% w/v THC) was 6010 ng/g and the concentration at 1 h ([6]; sclera, 50 μL of 0.1% w/v THC) was 416 ng/g. It also gave a concentration at 1 h ([6]; sclera, 50 μL of 0.37% w/v THC) of 684 ng/g.

In the case of CCCCCc1cc(OC(=O)C(N)CC(C)C)c2c(c1)OC(C)(C)C1CCC(C)=CC21 (stereo not shown) [THC-Leucinate (8), Δ^9-THC-leucinate], the K [7] is reported as 42.70 ± 3.58 ×10^−2 min^−1, the T1/2 [7] is reported as 1.629 ± 0.137 min and the “Drug loading (%)” value [1] is reported as 103.65 ± 4.12%. For the same compound, the “CBN content of the sample after heating” value [1] was 20.27 ± 0.43 µg, the “Drug remaining” value [1] was 1383.29 ± 40.73 µg and the “THC content of the sample after heating” value [1] was 25.86 ± 0.83 µg. For the same compound, the “Drug remaining (%)” value [1] was “(88.99 ± 0.92) %”, the “CBN content of the sample, initial” value [1] was 16.34 ± 0.50 µg and the “Initial, μg (drug itself)” value [1] was 1554.80 ± 61.76 µg. The “THC content of the sample, initial” value [1] was -6.13 ± 0.84 µg, the K [8] was 5.49 ± 0.46 ×10^−3 min^−1 and the K [9] was 33.84 ± 10.92 ×10^−2 min^−1. The T1/2 [9] was 2.160 ± 0.697 min, the K [10] was 22.98 ± 1.49 ×10^−3 min^−1 and the T1/2 [10] was 30.21 ± 1.95 min. For the same compound, the “Aqueous Solubility” value ([4]; pH 1.2) was 9.36 ± 0.11 µg/mL, the “Aqueous Solubility” value ([4]; pH 1.2, listed as THC-Leucine) was 21.89 ± 0.26 µM and the “Aqueous Solubility” value ([4]; pH 2) was 23.71 ± 0.40 µg/mL. The “Aqueous Solubility” value ([4]; pH 2, listed as THC-Leucine) was 55.46 ± 0.93 µM, the “Aqueous Solubility” value ([4]; pH 3) was 5.17 ± 0.60 µg/mL and the “Aqueous Solubility” value ([4]; pH 3, listed as THC-Leucine) was 12.08 ± 1.40 µM. For the same compound, the “Aqueous Solubility” value ([4]; pH 4) was 1.95 ± 0.09 µg/mL, the “Aqueous Solubility” value ([4]; pH 4, listed as THC-Leucine) was 4.33 ± 0.20 µM and the “Aqueous Solubility” value ([4]; pH 5) was 0.23 ± 0.03 µg/mL. The “Aqueous Solubility” value ([4]; pH 5, listed as THC-Leucine) was 0.54 ± 0.06 µM, the “Aqueous Solubility” value ([4]; pH 6) was 0.08 ± 0.01 µg/mL and the “Aqueous Solubility” value ([4]; pH 6, listed as THC-Leucine) was 0.19 ± 0.02 µM. For the same compound, the “First order rate constant” value ([5]; Buffer pH 5.0, 25° C.) was 15.94 ± 3.38 ×10^−3 h^−1, the “First order rate constant” value ([5]; Buffer pH 7.0, 25° C.) was 85.91 ± 16.83 ×10^−3 h^−1 and the “First order rate constant” value ([5]; Buffer pH 9.0, 25° C.) was 119.98 ± 33.51 ×10^−3 h^−1. For the same compound, the “First order rate constant” value ([5]; Water, 25° C.) was 8.51 ± 2.80 ×10^−3 h^−1.

For CCCCCc1cc(OC(=O)C(N)C(C)C)c2c(c1)OC(C)(C)C1CCC(C)=CC21 (stereo not shown) [THC-Valinate (6), Δ^9-THC-valinate], the K [7] was 91.16 ± 10.91 ×10^−2 min^−1, the T1/2 [7] was 0.766 ± 0.092 min and the “Drug loading (%)” value [1] was 104.67 ± 2.22%. The “CBN content of the sample after heating” value [1] was 8.79 ± 2.43 µg, the “Drug remaining” value [1] was 1440.57 ± 46.34 µg and the “THC content of the sample after heating” value [1] was 74.35 ± 5.26 µg. The “Drug remaining (%)” value [1] was “(91.80 ± 4.90) %”, the “CBN content of the sample, initial” value [1] was 8.27 ± 1.68 µg and the “Initial, μg (drug itself)” value [1] was 1570.09 ± 33.27 µg. The “THC content of the sample, initial” value [1] was 61.91 ± 9.49 µg, the K [8] was 3.66 ± 0.68 ×10^−3 min^−1 and the K [9] was 61.94 ± 6.01 ×10^−2 min^−1. The T1/2 [9] was 1.124 ± 0.109 min, the K [10] was 16 ± 0.19 ×10^−3 min^−1 and the T1/2 [10] was 43.30 ± 0.51 min. For the same compound, the “Aqueous Solubility” value ([4]; H20) was 0.05 µg/mL, the “Aqueous Solubility” value ([4]; pH 1.2) was 32.16 ± 0.27 µg/mL and the “Aqueous Solubility” value ([4]; pH 1.2, listed as THC-Valine) was 78.23 ± 0.66 µM. For the same compound, the “Aqueous Solubility” value ([4]; pH 2) was 53.66 ± 10.30 µg/mL, the “Aqueous Solubility” value ([4]; pH 2, listed as THC-Valine) was 147.35 ± 24.90 µM and the “Aqueous Solubility” value ([4]; pH 3) was 28.76 ± 0.14 µg/mL. The “Aqueous Solubility” value ([4]; pH 3, listed as THC-Valine) was 69.78 ± 0.33 µM, the “Aqueous Solubility” value ([4]; pH 4) was 10.34 ± 0.53 µg/mL and the “Aqueous Solubility” value ([4]; pH 4, listed as THC-Valine) was 24.10 ± 1.28 µM. The “Aqueous Solubility” value ([4]; pH 5) was 1.27 ± 0.25 µg/mL, the “Aqueous Solubility” value ([4]; pH 5, listed as THC-Valine) was 3.51 ± 0.62 µM and the “Aqueous Solubility” value ([4]; pH 6) was 0.07 ± 0.00 µg/mL. For the same compound, the “Aqueous Solubility” value ([4]; pH 6, listed as THC-Valine) was 0.17 ± 0.00 µM, the “First order rate constant” value ([5]; Buffer pH 5.0, 25° C.) was 4.06 ± 0.01 ×10^−3 h^−1 and the “First order rate constant” value ([5]; Buffer pH 7.0, 25° C.) was 47.13 ± 1.16 ×10^−3 h^−1. For the same compound, the “First order rate constant” value ([5]; Buffer pH 9.0, 25° C.) was 67.64 ± 7.67 ×10^−3 h^−1 and the “First order rate constant” value ([5]; Water, 25° C.) was 23.70 ± 0.77 ×10^−3 h^−1.
